Read-outs that look alike come from different tables or passages of the source.

Series [1] addresses human recombinant WT BTK (Homo sapiens, UniProt Q06187). In words: Caliper-based biochemical enzymatic assay (IC50) against WT BTK. The following applies: WT BTK 0.5 nM, ATP 16 μM, peptide substrate 1 μM, room temperature 3 h. The procedure:
The reaction was then terminated with EDTA, final concentration 20 mM and the phosphorylated reaction product was quantified on a Caliper Desktop Profiler (Caliper LabChip 3000). Percent inhibition was calculated for each compound dilution and the concentration that produced 50% inhibition was calculated.

For series [2] the following is noted: dogs, even at higher doses; cited from earlier work.
The conditions of series [3]: rats, treatment for longer than 7 days; cited from earlier work.
For series [4] the following is noted: formulations containing GDC-0853; cited from earlier work.
The conditions of series [5]: mice, even at higher doses; cited from earlier work.

Sequence of human recombinant WT BTK (Q06187 whole entry): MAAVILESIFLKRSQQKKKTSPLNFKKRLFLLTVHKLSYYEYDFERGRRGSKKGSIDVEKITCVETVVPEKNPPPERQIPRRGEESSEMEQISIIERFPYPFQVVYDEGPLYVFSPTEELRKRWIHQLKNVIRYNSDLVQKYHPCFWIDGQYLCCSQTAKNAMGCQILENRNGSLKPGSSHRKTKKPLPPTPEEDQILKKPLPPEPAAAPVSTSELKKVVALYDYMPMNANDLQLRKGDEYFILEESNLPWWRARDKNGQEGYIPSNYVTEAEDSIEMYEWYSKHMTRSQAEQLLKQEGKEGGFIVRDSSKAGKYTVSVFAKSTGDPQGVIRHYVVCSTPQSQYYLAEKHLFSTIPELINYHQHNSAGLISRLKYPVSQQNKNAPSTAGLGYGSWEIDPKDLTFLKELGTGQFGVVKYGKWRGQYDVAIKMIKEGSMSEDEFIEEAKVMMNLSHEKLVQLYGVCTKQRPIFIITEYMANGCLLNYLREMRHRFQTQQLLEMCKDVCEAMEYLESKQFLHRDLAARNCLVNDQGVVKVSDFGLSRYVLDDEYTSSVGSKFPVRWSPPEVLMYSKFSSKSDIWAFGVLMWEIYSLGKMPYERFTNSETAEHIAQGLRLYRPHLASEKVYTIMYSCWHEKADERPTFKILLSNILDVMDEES

In the case of `C=CC(=O)Nc1cc(Nc2nc(-c3ccnc(NC(=O)c4ccc(C(C)(C)C)cc4)c3CO)cn(C)c2=O)ccc1N1CCN(C2CCOCC2)C[C@@H]1C` [Example 1, 4-tert-butyl-N-[3-(hydroxymethyl)-4-[4-methyl-6-([4-[(2S)-2-methyl-4-(oxan-4-yl)piperazin-1-yl]-3-(prop-2-enamido)phenyl]amino)-5-oxopyrazin-2-yl]pyridin-2-yl]benzamide], the IC50 in series [1] amounted to 0.64 nM.

`C[C@H]1CN(C2COC2)CCN1c1ccc(Nc2cc(-c3ccnc(N4CCn5c(cc6c5CC(C)(C)C6)C4=O)c3CO)cn(C)c2=O)nc1` [GDC-0853]: the pancreatic toxicity entry in series [2] is recorded as “does not occur”; in series [3] it was “leads to pancreatic toxicity”; in series [5] it was “does not occur”. In addition, the “tolerability in Phase I clinical trials” value in series [4] is on record as “well-tolerated”.

Broadly, the IC50 is the midpoint of a concentration-inhibition curve.

The record behind these values is US20230382900A1, “INHIBITORS OF BTK” (Newave Pharmaceutical Inc., priority 2020, published 2023).
